We go through 33 compounds from PubChem BioAssay AID806 (SRMLSC, 2007).

Active and inactive are the calls of the source. How the calls were made is not given here. Some results are limits rather than exact numbers.

This experiment deals with virus-infected cells, CPE inhibition, dose response. Put plainly: PubChem AID 806. The settings on record: for EC90: measured here: EC90 CPE inhibition; for CC50: measured here: cytotoxicity, cell viability IC50.

As a reminder, the EC50 is the midpoint of the concentration-response curve. As usually defined, the EC90 is the concentration needed for an effect of 90%. The CC50 is the concentration at which the toxic effect on the cells reaches its halfway point. Low values mean greater toxicity to the cells, high ones lower toxicity to the cells. Consider `O=C1NC2=C(CCc3ccccc32)C(c2ccc(Br)cc2)N1` (centres undefined), for which the EC50 was 4.34 µM, the EC90 was found to be 27.2 µM and the CC50 was greater than 60 µM.

Consider `O=C(c1cnn2c(C(F)(F)F)cc(-c3ccccc3)nc12)N1CCOCC1`, for which the EC50 is > 60 µM (inactive), the EC90 is greater than 60 µM and the CC50 was greater than 60 µM.

With `COc1ccc(C2=NOC(C(=O)Nc3cc(C)nn3-c3ccccc3)C2)cc1OC` (centres undefined), the EC50 was > 60 µM (inactive), the EC90 was greater than 60 µM and the CC50 is greater than 60 µM.

As for `COc1cccc(Nc2ncnc3c2cnn3-c2cccc(C)c2)c1`, the EC50 is > 60 µM (inactive), the EC90 is greater than 60 µM and the CC50 is greater than 60 µM.

Consider `COc1ccc(NC(=O)C2CC(=O)OC23CCCCC3)cc1` (centres undefined), for which the EC50 was > 60 µM (inactive), the EC90 was greater than 60 µM and the CC50 is greater than 60 µM.

As to `CCOC(=O)/C=C1\SCC(=O)N1CC(=O)Nc1ccc(C(C)C)cc1`, the EC50 was > 60 µM (inactive), the EC90 is greater than 60 µM and the CC50 is greater than 60 µM.

Consider `CC(=O)Nc1ccc(Nc2ncnc3c2cnn3-c2ccccc2)cc1`, for which the EC50 was > 60 µM (inactive), the EC90 was greater than 60 µM and the CC50 was greater than 60 µM.

As for `CCc1ccc(NC(=O)CCS(=O)(=O)c2cccc3nsnc23)cc1`, the EC50 is > 60 µM (inactive), the EC90 is greater than 60 µM and the CC50 is greater than 60 µM.

On to `Cc1cc2cc(CNC(=O)c3ccc(S(=O)(=O)N(C)C)cc3)ccc2n1C`, for which the EC50 is > 60 µM (inactive), the EC90 was greater than 60 µM and the CC50 is greater than 60 µM.

Consider `CN1c2ccsc2C(O)=C(C(=S)Nc2ccccc2)S1(=O)=O`, for which the EC50 was > 60 µM (inactive), the EC90 is greater than 60 µM and the CC50 was greater than 60 µM.

In the case of `O=C(Nc1ccc(Cl)cn1)c1cc2ccccc2o1`, the EC50 is > 60 µM (inactive), the EC90 was greater than 60 µM and the CC50 is greater than 60 µM.

Consider `Cn1nc([N+](=O)[O-])nc1Sc1nnc(-c2ccccc2)o1`, for which the EC50 was > 60 µM (inactive), the EC90 is greater than 60 µM and the CC50 is greater than 60 µM.

For `CC(C)CNC(=O)c1cccc(NC(=O)c2ccc(NC(=O)c3ccco3)cc2)c1`, the EC50 is > 60 µM (inactive), the EC90 is greater than 60 µM and the CC50 is greater than 60 µM.

For `CCOC(=O)/C=C1\SCC(=O)N1CC(=O)Nc1ccc(OC)c(OC)c1`, the EC50 was > 60 µM (inactive), the EC90 was greater than 60 µM and the CC50 was greater than 60 µM.

`O=Nc1c(O)n(Cc2cccc(Cl)c2)c2ccccc12`: the EC50 is > 60 µM (inactive), the EC90 was greater than 60 µM and the CC50 was greater than 60 µM.

Turning to `O=C(O)c1ccc(CN2C(=O)CSC2=S)cc1`, the EC50 is > 60 µM (inactive), the EC90 is greater than 60 µM and the CC50 was greater than 60 µM.

For the compound `O=C(CN1CCN(c2ncccn2)CC1)NCc1ccccc1`, the EC50 was > 60 µM (inactive), the EC90 was greater than 60 µM and the CC50 is greater than 60 µM.

Consider `O=C(Nc1ccccc1)N1CCn2c1nc1ccccc12`, for which the EC50 is > 60 µM (inactive), the EC90 is greater than 60 µM and the CC50 was greater than 60 µM.

`CS(=O)(=O)c1nc(-c2cccs2)cc(C(F)(F)F)n1`: the EC50 was > 60 µM (inactive), the EC90 was greater than 60 µM and the CC50 worked out at 30.1 µM.

Consider `CCN(c1ccccc1)c1ncnc2c1cnn2-c1ccccc1`, for which the EC50 was > 60 µM (inactive), the EC90 is greater than 60 µM and the CC50 was greater than 60 µM.

Consider `CC(=O)Nc1ccc(Nc2ncnc3c2cnn3-c2cccc(C)c2)cc1`, for which the EC50 is > 60 µM (inactive), the EC90 is greater than 60 µM and the CC50 is greater than 60 µM.

As for `CC1CCN(c2ccc(C(=O)NCc3cccs3)cn2)CC1`, the EC50 is > 60 µM (inactive), the EC90 was greater than 60 µM and the CC50 was greater than 60 µM.

Consider `CCOCCCNC(=O)C1CCCCN1S(=O)(=O)c1ccc(F)cc1` (centres undefined), for which the EC50 was > 60 µM (inactive), the EC90 was greater than 60 µM and the CC50 is greater than 60 µM.

Take `COC(=O)Nc1ccc(S(=O)(=O)N2CCCCC2C(=O)NCc2ccco2)cc1` (centres undefined): the EC50 was > 60 µM (inactive), the 90% effect concentration (EC90) was greater than 60 µM and the CC50 is greater than 60 µM.

`Cc1cccc(-n2ncc3c(N4CCc5ccccc54)ncnc32)c1`: the EC50 was > 60 µM (inactive), the concentration for an effect of 90% (EC90) was greater than 60 µM and the CC50 is greater than 60 µM.

For `COC(=O)Cc1c(C)nc2nc(-c3ccccc3)[nH]n2c1=O`, the EC50 was > 60 µM (inactive), the EC90 is greater than 60 µM and the CC50 was greater than 60 µM.

Take `Cc1nc2nc(-c3cccnc3)[nH]n2c(=O)c1Cc1ccccc1`: the EC50 is > 60 µM (inactive), the EC90 was greater than 60 µM and the CC50 was greater than 60 µM.

For the compound `O=C1NCCCc2c1oc1ccc(O)cc21`, the EC50 was > 60 µM (inactive), the 90% effect concentration (EC90) is greater than 60 µM and the CC50 is greater than 60 µM.

Turning to `N#CCCN1CCn2c1nc1ccccc12`, the EC50 was > 60 µM (inactive), the EC90 is greater than 60 µM and the CC50 is greater than 60 µM.

As for `CCOC(=O)CN(C(=O)Cn1nnc2ccccc21)C(C(=O)NCCOC)c1ccccc1C` (centres undefined), the EC50 is > 60 µM (inactive), the EC90 was greater than 60 µM and the CC50 was greater than 60 µM.

Regarding `Cc1cc(C)n(S(=O)(=O)/C=C/c2ccccc2)n1`, the EC50 was 56.5 µM (inactive), the EC90 is greater than 60 µM and the CC50 was greater than 60 µM.

In the case of `CC1CC(=O)C2=C(C1)Nc1ccccc1N(C(=O)COc1ccccc1)C2c1ccco1` (centres undefined), the EC50 was > 60 µM (inactive), the EC90 is greater than 60 µM and the CC50 was greater than 60 µM.

Consider `COCc1cc(=O)n2c(-c3ccccc3OC)n[nH]c2n1`, for which the EC50 is > 60 µM (inactive), the EC90 is greater than 60 µM and the CC50 is greater than 60 µM.
